The record followed here is patent publication US11319322B2, “Substituted aryl ether compound, preparation method thereof, pharmaceutical composition and use thereof” (Xiamen University, priority 2017, dated 2022).

Experiment [1] has as its target T1, CCDC6-RET-BaF3 (Homo sapiens, UniProt P07949).
T1 construct: fused on or other part: Q16204 (Coiled-coil domain-containing protein 6)
As to the kind of experiment: Growth inhibition of CCDC6-RET-BaF3 cells stably transfected with kinase (MTS). Type of experiment: cell-based. The settings on record: 48 h, read-out: CCDC6-RET (IC50/nM). On the procedure: (§1) Growth inhibitory activity of compounds on cell lines stably transfected with kinase
(§2) The activity of compounds against kinase RET is evaluated by their effect of inhibiting growth of cell lines stably transfected with kinase CCDC6-RET-BaF3, KIF5B-RET-BaF3, and wild-type BaF3 (Proc. Natl. Acad. Sci. USA., 2006, 103, 3153-8.). The growth of the cell lines stably transfected with kinase CCDC6-RET-BaF3, KIF5B-RET-BaF3 depends on their kinase activity. If a compound can inhibit the activity of the kinase RET per se or the activity of the RET signaling pathway, the compound can inhibit the growth of BaF3 cells stably transfected with kinase. […] Therefore, a larger ratio between IC50 of a compound to wild-type BaF3 and IC50 of the compound to the cell lines stably transfected with kinase CCDC6-RET-BaF3, KIF5B-RET-BaF3 indicates better targeting.
(§3) The specific test method is given as follows:
(§4) 1) Medium: DMEM (Dulbecco's modified eagle medium) or RPMI 1640 (containing 10% fetal bovine serum, 100 μg/mL ampicillin, 100 μg/mL streptomycin).
(§5) 2) Reagents: MTS reaction solution (containing 2 mg/mL of MTS [3-(4,5-dimethylthiazol-2-yl)-5-(3-carboxymethoxyphenyl)-2-(4-sulfophenyl)-2H-tetrazolium, inner Salt]; 100 μg/mL PES (phenazine […])).
(§6) 3) Compound test: cells stably transfected with kinase (CCDC6-RET-BaF3, KIF5B-RET-BaF3) or wild-type BaF3 cells (2×10^4 cells/well) were incubated into a 96-well culture plate, the volume of cell culture fluid was 90 μL, and then 10 μL of the compound at each gradient concentration was added (the highest concentration was 10 μM, which was diluted stepwise by ⅓, and 8 concentration points were set in total; the system contained 0.1% DMSO (dimethyl sulfoxide)). The cell plate with uniformly mixed compound was cultured in a cell culture incubator (37° C.; 5% CO2) for 48 h, then 20 μL of MTS reaction solution was added, uniformly mixed and incubated in the cell culture incubator (37° C.; 5% CO2) for 1-4 hr, OD values at 490 nm were measured by a microplate reader (VARIOSKAN FLASH, Thermo). Three parallels were set in each group of experiments, with 0.1% (a final concentration) DMSO as a negative control, and a medium without cells or compounds as a blank control. The cell growth inhibition rate was calculated by the following formula: Cell growth inhibition rate %=1−(ODexperimental group−ODblank group)/(ODnegative group−ODblank group)×100%
(§7) 4) IC50 calculation: The semi-inhibitory concentration of the compound acting on cell growth was calculated using GradPad Prism 5 software according to the measured cell growth inhibition rate.

Experiment [2] addresses T2, KIF5B-RET-BaF3 (Homo sapiens, UniProt P07949).
T2 construct: fused on or other part: P33176 (Kinesin-1 heavy chain)
In words: Growth inhibition of KIF5B-RET-BaF3 cells stably transfected with kinase (MTS). The note with it: 48 h, read-out: KIF5B-RET (IC50/nM). Type of experiment: cell-based. As to the method:
as §1, §2, §3, §4, §5, §6, §7

T2 sequence (P07949 whole entry, change not shown, the tested form may be a part): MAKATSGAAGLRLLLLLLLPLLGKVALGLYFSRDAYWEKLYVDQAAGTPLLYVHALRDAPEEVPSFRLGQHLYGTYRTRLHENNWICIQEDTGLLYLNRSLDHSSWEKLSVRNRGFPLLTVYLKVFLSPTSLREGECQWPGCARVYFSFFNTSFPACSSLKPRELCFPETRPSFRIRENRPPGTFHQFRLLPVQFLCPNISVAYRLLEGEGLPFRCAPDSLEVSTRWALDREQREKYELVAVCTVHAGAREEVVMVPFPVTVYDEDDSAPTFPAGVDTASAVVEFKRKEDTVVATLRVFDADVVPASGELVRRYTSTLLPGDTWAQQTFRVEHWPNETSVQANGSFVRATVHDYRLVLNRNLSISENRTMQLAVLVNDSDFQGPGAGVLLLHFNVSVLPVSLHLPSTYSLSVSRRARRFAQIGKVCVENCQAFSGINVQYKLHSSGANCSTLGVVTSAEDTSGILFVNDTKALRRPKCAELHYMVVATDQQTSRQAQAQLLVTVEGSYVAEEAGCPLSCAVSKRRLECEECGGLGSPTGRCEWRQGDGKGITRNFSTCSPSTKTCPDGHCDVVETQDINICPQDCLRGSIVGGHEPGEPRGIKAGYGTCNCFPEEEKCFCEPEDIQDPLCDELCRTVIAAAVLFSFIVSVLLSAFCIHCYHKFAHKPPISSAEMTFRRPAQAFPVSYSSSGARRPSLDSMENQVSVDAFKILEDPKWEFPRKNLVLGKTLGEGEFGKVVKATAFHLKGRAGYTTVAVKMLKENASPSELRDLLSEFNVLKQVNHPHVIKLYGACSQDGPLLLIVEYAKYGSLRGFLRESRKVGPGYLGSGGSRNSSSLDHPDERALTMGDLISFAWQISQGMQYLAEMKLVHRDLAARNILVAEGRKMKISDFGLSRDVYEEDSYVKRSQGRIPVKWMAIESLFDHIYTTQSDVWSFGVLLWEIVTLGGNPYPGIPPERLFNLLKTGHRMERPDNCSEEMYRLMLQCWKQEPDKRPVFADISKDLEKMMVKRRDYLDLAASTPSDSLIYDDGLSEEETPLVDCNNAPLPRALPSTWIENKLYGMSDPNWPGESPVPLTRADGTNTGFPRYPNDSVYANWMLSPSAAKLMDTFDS
T1 sequence (P07949 whole entry, change not shown, the tested form may be a part): as above

In the case of `Cc1ccc(C(=O)Nc2cc(CN3CCN(C)CC3)cc(C(F)(F)F)c2)cc1Oc1nc(-c2ccncc2)nc2c1cnn2C` [II-s-2], the results for the GI50 in experiment [1] and in experiment [2] were 188 nM and 355 nM, respectively.

As for `CN1CCN(Cc2ccc(NC(=O)c3cccc(Oc4nc(-c5cccnc5)nc5ccn(C)c45)c3)cc2C(F)(F)F)CC1` [III-l-3], the results for the GI50 in experiment [1] and in experiment [2] were 1400 nM and 1540 nM, respectively.

Consider `CCS(=O)(=O)NC1CCN(c2ccc(NC(=O)c3ccc(C)c(Oc4nc(-c5ccncc5)nc5c4cnn5C)c3)cc2C(F)(F)F)CC1` [II-v-15], for which the GI50 in experiment [1] came to 114 nM; in experiment [2], 135 nM.

Consider `Cc1ccc(NC(=O)c2ccc(CN3CCN(C)CC3)c(C(F)(F)F)c2)cc1Oc1nc(-c2cccnc2)nc2c1cnn2C` [II-i-1], for which the GI50 in experiment [1] amounted to 477 nM; in experiment [2], 411 nM.

Turning to `Cc1ccc(C(=O)Nc2ccc(CN3CCN(C)CC3)c(C(F)(F)F)c2)cc1Oc1nc(Nc2ccccc2)nc2c1cnn2C` [II-m-12], the GI50 in experiment [1] was determined as 123 nM; in experiment [2] it was 69.7 nM.

Take `CN1CCN(Cc2ccc(NC(=O)c3cccc(Oc4cc(-c5ccncc5)nc5sccc45)c3)cc2C(F)(F)F)CC1` [VII-l-2]: the figures for the GI50 in experiment [1] and in experiment [2] were 215 nM and 315 nM, respectively.

Regarding `Cc1ccc(C(=O)Nc2ccc(CN3CCN(C)CC3)c(C(F)(F)F)c2)cc1Oc1nc(-c2ccncc2)nc2c1cnn2C` [II-m-2], the GI50 in experiment [1] worked out at 30.2 nM; in experiment [2], 17.8 nM.

Consider `Cc1ccc(C(=O)Nc2ccc(CN3CCN(C)CC3)c(C(F)(F)F)c2)cc1Oc1nc(-c2ccccc2)nc2c1cnn2C` [II-m-3], for which the GI50 in experiment [1] is 348 nM; in experiment [2], 97.7 nM.

For the compound `CN1CCN(Cc2ccc(NC(=O)c3cc(Oc4nc(-c5cccc(N)c5)nc5nn(C)cc45)ccc3Cl)cc2C(F)(F)F)CC1` [IV-o-8], the GI50 in experiment [1] came to 172 nM; in experiment [2] it was 152 nM.

Turning to `CN1CCN(Cc2ccc(NC(=O)c3cc(Oc4nc(-c5ccc(O)cc5)nc5c4ncn5C)ccc3Cl)cc2C(F)(F)F)CC1` [I-o-7], the figures for the GI50 in experiment [1] and in experiment [2] were 903 nM and 1210 nM, respectively.

Turning to `Cc1ccc(Oc2nc(-c3ccncc3)nc3nn(C)cc23)cc1NC(=O)c1cccc(C(F)(F)F)c1` [IV-c-2], the GI50 is 1680 nM in experiment [1] and 2840 nM in experiment [2].

With `CCC(=O)NCC1CCN(c2ccc(NC(=O)c3ccc(C)c(Oc4nc(-c5ccncc5)nc5c4cnn5C)c3)cc2C(F)(F)F)CC1` [II-v-9], the figures for the GI50 in experiment [1] and in experiment [2] were 961 nM and 934 nM, respectively.

In the case of `Cc1ccc(Oc2nc(-c3cccc(O)c3)nc3c2ncn3C)cc1C(=O)Nc1ccc(CN2CCN(C)CC2)c(C(F)(F)F)c1` [I-n-7], the GI50 in experiment [1] is 1560 nM; in experiment [2] it was 1450 nM.

As to `CN1CCN(Cc2ccc(C(=O)Nc3cc(Oc4nc(-c5cccnc5)nc5c4cnn5C)ccc3Cl)cc2C(F)(F)F)CC1` [II-k-1], the GI50 in experiment [1] is 2070 nM; in experiment [2], 1390 nM.

In the case of `CCC(=O)NCC1CCN(c2ccc(NC(=O)c3ccc(C)c(Oc4nc(-c5cccnc5)nc5cc[nH]c45)c3)cc2C(F)(F)F)CC1` [III-v-12], the GI50 in experiment [1] is 149 nM; in experiment [2] it was 191 nM.

On to `CN1CCN(Cc2ccc(NC(=O)c3cccc(Oc4cc(-c5cccnc5)nc5sccc45)c3)cc2C(F)(F)F)CC1` [VII-l-1], for which the GI50 in experiment [1] was 1020 nM; in experiment [2], 1350 nM.

As to `Cc1ccc(Oc2nc(-c3ccc(N)cc3)nc3nn(C)cc23)cc1C(=O)Nc1ccc(CN2CCN(C)CC2)c(C(F)(F)F)c1` [IV-n-9], the GI50 in experiment [1] stood at 1830 nM; in experiment [2], 1570 nM.

On to `Cc1ccc(Oc2nc(-c3ccncc3)nc3ccn(C)c23)cc1C(=O)Nc1ccc(CN2CCN(C)CC2)c(C(F)(F)F)c1` [III-n-4], for which the GI50 in experiment [1] came out at 43.1 nM; in experiment [2], 17.2 nM.

Take `CN1CCN(Cc2ccc(C(=O)Nc3cccc(Oc4nc(-c5cccnc5)nc5ccn(C)c45)c3)cc2C(F)(F)F)CC1` [III-h-3]: the GI50 worked out at 4100 nM in experiment [1] and 2140 nM in experiment [2].

As for `CN1CCN(Cc2ccc(NC(=O)c3cc(Oc4nc(-c5ccncc5)nc5c4ncn5C)ccc3Cl)cc2C(F)(F)F)CC1` [I-o-2], the GI50 in experiment [1] is 20.6 nM; in experiment [2] it was 3.15 nM.

In the case of `Cc1ccc(Oc2cc(-c3cn[nH]c3)nc3[nH]ccc23)cc1C(=O)Nc1ccc(CN2CCN(C)CC2)c(C(F)(F)F)c1` [V-n-12], the GI50 came to 566 nM in experiment [1] and 673 nM in experiment [2].

In the case of `CN1CCN(Cc2ccc(NC(=O)c3cc(Oc4cc(-c5cccnc5)nc5sccc45)ccc3Cl)cc2C(F)(F)F)CC1` [VII-o-1], the GI50 came out at 1570 nM in experiment [1] and 1630 nM in experiment [2].

On to `CN1CCN(Cc2ccc(C(=O)Nc3cccc(Oc4nc(-c5ccncc5)nc5cc[nH]c45)c3)cc2C(F)(F)F)CC1` [III-h-2], for which the GI50 in experiment [1] was found to be 16.8 nM; in experiment [2] it was 16.4 nM.

Turning to `CN1CCN(Cc2ccc(NC(=O)c3cc(Oc4nc(-c5ccc(O)cc5)nc5nn(C)cc45)ccc3Cl)cc2C(F)(F)F)CC1` [IV-o-7], the GI50 in experiment [1] turned out to be 1510 nM; in experiment [2], 1610 nM.

Take `CN1CCN(Cc2ccc(NC(=O)c3cc(Oc4nc(-c5ccncc5)nc5nn(C)cc45)ccc3Cl)cc2C(F)(F)F)CC1` [IV-o-2]: the GI50 worked out at 88.6 nM in experiment [1] and 12.1 nM in experiment [2].

In the case of `CCC(=O)NC1CCN(c2ccc(NC(=O)c3ccc(C)c(Oc4nc(-c5cccnc5)nc5c4cnn5C)c3)cc2C(F)(F)F)CC1` [II-v-12], the GI50 in experiment [1] is 364 nM; in experiment [2], 118 nM.

In the case of `CN1CCN(Cc2ccc(NC(=O)c3cc(Oc4nc(-c5cccc(O)c5)nc5nn(C)cc45)ccc3Cl)cc2C(F)(F)F)CC1` [IV-o-6], the GI50 in experiment [1] came to 4020 nM; in experiment [2], 3400 nM.

On to `CN1CCN(Cc2ccc(C(=O)Nc3cccc(Oc4nc(-c5cccnc5)nc5cc[nH]c45)c3)cc2C(F)(F)F)CC1` [III-h-1], for which the GI50 in experiment [1] came out at 2810 nM; in experiment [2], 1540 nM.

Regarding `CN1CCN(Cc2ccc(C(=O)Nc3cccc(Oc4nc(-c5ccncc5)nc5c4cnn5C)c3)cc2C(F)(F)F)CC1` [II-h-2], the GI50 in experiment [1] came to 140 nM; in experiment [2] it was 106 nM.

With `Cc1ccc(C(=O)Nc2cc(C(F)(F)F)cc(C(F)(F)F)c2)cc1Oc1nc(-c2cccnc2)nc2c1cnn2C` [II-v-1], the GI50 in experiment [1] is 7230 nM; in experiment [2], 7940 nM.

`Cc1ccc(Oc2nc(-c3cccnc3)nc3c2cnn3C)cc1NC(=O)c1ccc(CN2CCN(C)CC2)c(C(F)(F)F)c1` [II-j-1]: the values for the GI50 in experiment [1] and in experiment [2] were 4170 nM and 4420 nM, respectively.

With `CN1CCN(Cc2ccc(C(=O)Nc3cc(Oc4nc(-c5ccncc5)nc5c4cnn5C)ccc3Cl)cc2C(F)(F)F)CC1` [II-k-2], the figures for the GI50 in experiment [1] and in experiment [2] were 15.8 nM and 114 nM, respectively.

Take `CN1CCN(Cc2ccc(NC(=O)c3cc(Oc4nc(-c5ccccc5)nc5nn(C)cc45)ccc3Cl)cc2C(F)(F)F)CC1` [IV-o-3]: the GI50 was 4310 nM in experiment [1] and 4180 nM in experiment [2].

Regarding `Cc1ccc(C(=O)Nc2ccc(CN3CCN(C)CC3)c(C(F)(F)F)c2)cc1Oc1nc(N2CCOCC2)nc2c1cnn2C` [II-m-15], the GI50 amounted to 111 nM in experiment [1] and 18 nM in experiment [2].

Consider `Cc1ccc(Oc2nc(-c3ccsc3)nc3c2ncn3C)cc1C(=O)Nc1ccc(CN2CCN(C)CC2)c(C(F)(F)F)c1` [I-n-12], for which the figures for the GI50 in experiment [1] and in experiment [2] were 2030 nM and 1860 nM, respectively.

Consider `Cc1ccc(Oc2nc(-c3cccc(Cl)c3)nc3c2ncn3C)cc1C(=O)Nc1ccc(CN2CCN(C)CC2)c(C(F)(F)F)c1` [I-n-5], for which the GI50 in experiment [1] came to 1540 nM; in experiment [2] it was 1510 nM.

As to `Cc1ccc(NC(=O)c2cccc(C(F)(F)F)c2)cc1Oc1nc(-c2ccncc2)nc2nn(C)cc12` [IV-b-2], the GI50 in experiment [1] turned out to be 5870 nM; in experiment [2], 4170 nM.

As to `Cc1ccc(Oc2nc(-c3ccsc3)nc3nn(C)cc23)cc1C(=O)Nc1ccc(CN2CCN(C)CC2)c(C(F)(F)F)c1` [IV-n-11], the results for the GI50 in experiment [1] and in experiment [2] were 5220 nM and 4210 nM, respectively.

`CN1CCN(Cc2ccc(C(=O)Nc3cccc(Oc4nc(-c5ccncc5)nc5ccn(C)c45)c3)cc2C(F)(F)F)CC1` [III-h-4]: the GI50 in experiment [1] turned out to be 195 nM; in experiment [2], 180 nM.

Take `Cc1ccc(C(=O)Nc2ccc(CN3CCN(C)CC3)c(C(F)(F)F)c2)cc1Oc1nc(-c2ccncc2)nc2cc[nH]c12` [III-m-2]: the GI50 in experiment [1] is 3630 nM; in experiment [2] it was 1310 nM.
